Data from patent US20100310561A1, “NATRIURETIC FUSION PROTEINS” (BOEHRINGER INGELHEIM INTERNATIONAL GMBH, priority 2007, published 2010).
Like-named read-outs stand apart in the source and are kept apart here.

Key:
human NPRA = target: T1, human NPRA (Homo sapiens, UniProt P16066); test: Natriuretic peptide fusion protein induced cGMP assay, human NPRA transfected HEK293 cells; assay type: cell-based
T1 sequence (P16066 33-1061): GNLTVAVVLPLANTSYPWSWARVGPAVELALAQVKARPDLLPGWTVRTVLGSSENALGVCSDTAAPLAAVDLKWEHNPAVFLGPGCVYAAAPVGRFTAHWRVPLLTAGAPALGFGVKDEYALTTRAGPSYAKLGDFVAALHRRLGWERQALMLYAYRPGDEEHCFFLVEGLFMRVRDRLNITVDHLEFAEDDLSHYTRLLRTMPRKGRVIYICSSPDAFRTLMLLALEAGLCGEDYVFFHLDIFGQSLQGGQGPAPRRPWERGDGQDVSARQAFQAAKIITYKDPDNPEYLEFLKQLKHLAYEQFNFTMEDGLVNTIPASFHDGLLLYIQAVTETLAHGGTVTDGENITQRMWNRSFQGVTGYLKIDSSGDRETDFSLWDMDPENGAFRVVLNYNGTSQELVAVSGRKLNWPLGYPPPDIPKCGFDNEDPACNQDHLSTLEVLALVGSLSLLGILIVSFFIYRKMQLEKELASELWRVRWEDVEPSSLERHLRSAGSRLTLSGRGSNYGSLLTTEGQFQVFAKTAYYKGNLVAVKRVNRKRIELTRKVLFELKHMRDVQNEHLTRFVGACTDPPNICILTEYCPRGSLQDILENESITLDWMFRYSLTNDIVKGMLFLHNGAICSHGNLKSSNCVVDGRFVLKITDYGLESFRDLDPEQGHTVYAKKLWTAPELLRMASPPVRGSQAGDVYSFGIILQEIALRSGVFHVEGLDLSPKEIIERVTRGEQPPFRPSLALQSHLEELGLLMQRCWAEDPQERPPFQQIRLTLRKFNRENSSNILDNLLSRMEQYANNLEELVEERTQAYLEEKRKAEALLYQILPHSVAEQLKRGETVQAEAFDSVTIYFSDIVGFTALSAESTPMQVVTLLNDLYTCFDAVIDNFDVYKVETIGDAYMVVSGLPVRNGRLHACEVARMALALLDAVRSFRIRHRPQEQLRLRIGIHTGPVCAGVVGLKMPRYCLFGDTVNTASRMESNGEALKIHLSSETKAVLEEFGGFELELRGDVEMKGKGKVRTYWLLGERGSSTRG
Source text: Full-length human NPRA, human NPRB, and human […] (NPRC) sequence containing plasmids were purchased from OriGene Technologies, Inc. (Rockville, Md.) then sub-cloned into pcDNA3.1 directional mammalian expression vector (Invitrogen). Insert orientation and nucleotide sequence of each construct was verified by an outside vendor (SeqWright, Inc.). The pcDNA3.1 NPR clones were transfected using Lipofectamine (Invitrogen) into HEK293 cells where stable cell lines expressing human NPRA, human NPRB, or human NPRC are selected using G418. Clones were screened using the natriuretic peptide induced cGMP assay described below. (NPRA clones were treated with human ANP while NPRB clones were treated with human CNP (Sigma)). High cGMP producing clones were expanded. NPRC clones were screened using a ^125I ANP binding assay. ^125I ANP high binders were expanded. […]
Natriuretic peptides of >95% HPLC purity were obtained from Sigma. […] The cGMP concentration was measured using the HitHunter™ cGMP Assay Kit (DiscoveRx Corporation). cGMP production dose response curves were generated with a four parameter logistic equation fitted using the Levenburg Marquardt algorithm in XLfit4.2 data analysis software (ID Business Solutions, Ltd.).
Results 1 from both Labs 1 and 2 were generated by interpreting the raw Relative Luminescence Units (RLU). […]

[1] = humans; Potter et al.; cited from earlier work
Monkey NPRA = test: cGMP assay, monkey NPRA expressing HEK293 cells; assay type: cell-based; settings: Table 4
Protocol: (§1) Natriuretic peptides of >95% HPLC purity were obtained from Sigma. HEK293 NPRA cells grown to 90% confluence were harvested using HANKS based Cell Dissociation Medium (GIBCO). Cells were washed and resuspended at 3.3×10^5 cells per mL in pre warmed Dulbecco's PBS, pH 7.4, 25 mM HEPES, 0.1% BSA, 500 μM 3-Isobutyl-1-methylxanthine (IBMX) [Assay Buffer]. Assays were performed in Optiplate-96 White Opaque 96-well Microplates (Perkin Elmer). 15 μL of cell suspension is added to 15 μL of 2× fusion protein in Assay Buffer in triplicate and incubated for 20 minutes at 37° C. The cGMP concentration was measured using the HitHunter™ cGMP Assay Kit (DiscoveRx Corporation). cGMP production dose response curves were generated with a four parameter logistic equation fitted using the Levenburg Marquardt algorithm in XLfit4.2 data analysis software (ID Business Solutions, Ltd.).
The selectivity of the recombinant ANP-Fc fusion proteins was assessed by analyzing their efficacy in NPRB expressing cell lines. The species cross-reactivity of the ANP-Fc fusion proteins was tested in rat, canine, and monkey NPRA expressing HEK293 cell lines. The ANP-Fc fusions tested have good cross-reactivity in the rat, canine, and monkey NPRA mediated cGMP assays (Table 4). The ANP-Fc fusion proteins have nearly equivalent dose response values when tested in human, dog and monkey expressing NPRA cells. […]

Dog NPRA = test: cGMP assay, canine NPRA expressing 293 cells; assay type: cell-based
Protocol: as §1
Human ANP28 peptide was assayed for cGMP production in species specific NPRA transfected 293 or 293T cells. Dose response curves for cGMP production stimulated by human ANP28 peptide in rat NPRA (rNPRA) expressing 293T cells and human NPRA (hNPRA) and canine NPRA (caNPRA) expressing 293 cells are shown in FIG. 2.
The selectivity of the recombinant ANP-Fc fusion proteins was assessed by analyzing their efficacy in NPRB expressing cell lines. […]

For “Wild-type rat ANP: rat atrial natriuretic peptide, differs from human ANP by one amino acid (SLRRSSCFGGRIDRIGAQSGLGCNSFRY) [reference compound]”, the “EC50 compared with human ANP in the human NPRA cGMP assay” value (human NPRA) was “slightly higher”.
In the case of BNP: B-type natriuretic peptide, the plasma half life [1] is listed as “approximately 20 minutes”.
With CC[C@H](C)[C@@H]1NC(=O)[C@H](CCCNC(=N)N)NC(=O)[C@H](CC(=O)O)NC(=O)[C@H](CCSC)NC(=O)[C@H](CCCNC(=N)N)NC(=O)CNC(=O)CNC(=O)[C@H](Cc2ccccc2)NC(=O)[C@@H](NC(=O)[C@H](CO)NC(=O)[C@H](CO)NC(=O)[C@H](CCCNC(=N)N)NC(=O)[C@H](CCCNC(=N)N)NC(=O)[C@H](CC(C)C)NC(=O)[C@@H](N)CO)CSSC[C@@H](C(=O)N[C@@H](CC(N)=O)C(=O)N[C@@H](CO)C(=O)N[C@@H](Cc2ccccc2)C(=O)N[C@@H](CCCNC(=N)N)C(=O)N[C@@H](Cc2ccc(O)cc2)C(=O)O)NC(=O)CNC(=O)[C@H](CC(C)C)NC(=O)CNC(=O)[C@H](CO)NC(=O)[C@H](CCC(N)=O)NC(=O)[C@H](C)NC(=O)CNC1=O [Construct 1, ANPXY] the EC50 (Monkey NPRA) was 0.5 nM, the EC50 (Dog NPRA; Table 4, read-out: cGMP EC50 (nM) Dog NPRA) was 1.3 nM and the EC50 (Dog NPRA; caNPRA 293 cells, read-out: Mean EC50 nM, cGMP-caNPRA 293) was 1.34 nM.
